Measurements taken from patent US8071797B2 (priority 2008, dated 2011).

target: T1, HCV polymerase (NS5B570n-Con1) (Hepatitis C virus genotype 1b, UniProt Q9WMX2); test: HCV NS5B RNA polymerase activity assay; assay type: biochemical, HCV Con1 strain; details: IC50 NS5B polymerase assay, Table I
T1 construct: contains a 21 amino acid deletion at the C-terminus relative to the full-length HCV polymerase; 6-histidine (N); made in house; host or cells: E. coli BL21 (DE) pLysS
Procedure: The enzymatic activity of HCV polymerase (NS5B570n-Con1) was measured as the incorporation of radiolabeled nucleotide monophosphates into acid insoluble RNA products. Unincorporated radiolabeled substrate was removed by filtration and scintillant was added to the washed and dried filter plate containing radiolabeled RNA product. The amount of RNA product generated by NS5B570-Con1 at the end of the reaction was directly proportional to the amount of light emitted by the scintillant.
The N-terminal 6-histidine tagged HCV polymerase, derived from HCV Con1 strain, genotype 1b (NS5B570n-Con1) contains a 21 amino acid deletion at the C-terminus relative to the full-length HCV polymerase and was purified from E. coli strain BL21 (DE) pLysS. The construct, containing the coding sequence of HCV NS5B Con1 (GenBank accession number AJ242654) was inserted into the plasmid construct pETI 7b, downstream of a T7 promoter expression cassette and transformed into E. coli. A single colony was grown overnight as a starter culture and later used inoculate 10 L of LB media supplemented with 100 μg/mL ampicillin at 37° C. Protein expression was induced by the addition of 0.25 mM isopropyl-β-D-thiogalactopyranoside (IPTG) when optical density at […] of the culture was between 0.6 and 0.8 and cells were harvested after 16 to 18 h at 30° C. NS5B570n-Con1 was purified to homogeneity using a three-step protocol including subsequent column chromatography on Ni-NTA, SP-Sepharose HP and Superdex 75 resins.
Each 50 μl enzymatic reaction contained 20 nM RNA template derived from the complementary sequence of the Internal Ribosome Entry Site (cIRES), 20 nM NS5B570n-Con1 enzyme, 0.5 μCi of tritiated UTP (Perkin Elmer catalog no. TRK-412; specific activity: 30 to 60 Ci/mmol; stock solution concentration from 7.5×10^-5 M to 20.6×10^-6 M), 1 μM each ATP, CTP, and GTP, 40 mM Tris-HCl pH 8.0, 40 mM NaCl, 4 mM DTT (dithiothreitol), 4 mM MgCl2, and 5 μl of compound serial diluted in DMSO. Reaction mixtures were assembled in 96-well filter plates (cat #MADVN0B, Millipore Co.) and incubated for 2 h at 30° C. Reactions were stopped by addition of 10% final (v/v) trichloroacetic acid and incubated for 40 min at 4° C. Reactions were filtered, washed with 8 reaction volumes of 10% (v/v) trichloroacetic acetic acid, 4 reaction volumes of 70% (v/v) ethanol, air dried, and 25 μl of scintillant (Microscint 20, Perkin-Elmer) was added to each reaction well.
The amount of light emitted from the scintillant was converted to counts per minute (CPM) on a Topcount® plate reader (Perkin-Elmer, Energy Range: Low, Efficiency Mode Normal, Count Time: 1 min, Background Subtract: none, Cross talk reduction: Off).
Data was analyzed in Excel® (Microsoft®) and ActivityBase® (idbsg). The reaction in the absence of enzyme was used to determine the background signal, which was subtracted from the enzymatic reactions. Positive control reactions were performed in the absence of compound, from which the background corrected activity was set as 100% polymerase activity. All data was expressed as a percentage of the positive control. The compound concentration at which the enzyme-catalyzed rate of RNA synthesis was reduced by 50% (IC50) was calculated by fitting
[formula] equation (t) to the data.where “Y” corresponds to the relative enzyme activity (in %), “% Min” is the residual relative activity at saturating compound concentration, “% Max” is the relative maximum enzymatic activity, “X” corresponds to the compound concentration, and “S” is the Hill coefficient (or slope).

| Compound | IC50 |
| --- | --- |
| CNC(=O)c1c(-c2ccc(Oc3ccc(F)cc3)cc2)oc2cc(N(CC[S+](C)[O-])S(C)(=O)=O)c(C3CC3)cc12 (stereo not shown) [Compound I-120, 5-Cyclopropyl-2-[4-(4-fluoro-phenoxy)-phenyl]-6-[(2-methanesulfinyl-ethyl)-methanesulfonyl-amino]-benzofuran-3-carboxylic acid methylamide] | 19 nM |
| CNC(=O)c1c(-c2ccc(Oc3ccc(F)cc3)cc2)oc2cc(N(CC(O)CN)S(C)(=O)=O)c(C3CC3)cc12 (stereo not shown) [Compound I-97, 6-[(3-Amino-2-hydroxy-propyl)-methanesulfonyl-amino]-5-cyclopropyl-2-[4-(4-fluoro-phenoxy)-phenyl]-benzofuran-3-carboxylic acid methylamide] | 48 nM |
| CNC(=O)c1c(-c2ccc(Oc3ccc(Cl)cc3)cc2)oc2cc(N(CCO)S(C)(=O)=O)c(OC(C)C)cc12 [Compound I-27] | 70 nM |
| CNC(=O)c1c(-c2ccc(Oc3ccccc3)cc2)oc2cc(-c3c(C)n[nH]c3C)c(C3CC3)cc12 [Compound I-101] | 318 nM |
| CNC(=O)c1c(-c2ccc(Oc3ccccc3)cc2)oc2cc(N(CCO)S(C)(=O)=O)c(OC)cc12 [Compound I-4, 6-[(2-Hydroxy-ethyl)-methanesulfonyl-amino]-5-methoxy-2-(4-phenoxy-phenyl)-benzofuran-3-carboxylic acid methylamide] | 62 nM |
| CNC(=O)c1c(-c2ccc(Oc3ccc(F)cc3)cc2)oc2cc(N(Cc3ccncc3)S(C)(=O)=O)c(C3CC3)cc12 [Compound I-71] | 9 nM |
| CNC(=O)c1c(-c2ccc(Nc3ccc(F)cc3)nc2)oc2cc(N(CCO)S(C)(=O)=O)c(OC)cc12 [Compound I-126, 2-[6-(4-Fluoro-phenylamino)-pyridin-3-yl]-6-[(2-hydroxy-ethyl)-methanesulfonyl-amino]-5-methoxy-benzofuran-3-carboxylic acid methylamide] | 468 nM |
| CNC(=O)c1c(-c2ccc(Oc3ccc(F)cc3)cc2)oc2cc(N(CCC[S+](C)[O-])S(C)(=O)=O)c(C3CC3)cc12 (stereo not shown) [Compound I-121] | 5 nM |
| CNC(=O)c1c(-c2ccc(Oc3ccc(F)cc3)cc2)oc2cc(N([C@H]3CC[C@H](O)CC3)S(C)(=O)=O)c(C3CC3)cc12 [Compound I-100] | 25 nM |
| CNC(=O)c1c(-c2ccc(Oc3ccc(F)cc3)cc2)oc2cc(N(CCO)S(C)(=O)=O)c(OC)cc12 [Compound I-8] | 57 nM |
| CNC(=O)c1c(-c2ccc(Oc3ccc(F)c(F)c3)cc2)oc2cc(N(CCO)S(C)(=O)=O)c(OC(C)C)cc12 [Compound I-50] | 261 nM |
| CNC(=O)c1c(-c2ccc(Oc3ccc(F)cc3)cc2)oc2cc(N(Cc3cncnc3)S(C)(=O)=O)c(C3CC3)cc12 [Compound I-88] | 26 nM |
| CNC(=O)c1c(-c2ccc(Oc3cccc(C#N)c3)cc2)oc2cc(N(CCO)S(C)(=O)=O)c(OC)cc12 [Compound I-47] | 338 nM |
| CNC(=O)c1c(-c2ccc(Oc3ccc(F)cc3)cc2)oc2cc(N(C)S(C)(=O)=O)c(Cl)cc12 [Compound I-66] | 29 nM |
| CNC(=O)c1c(-c2ccc(Oc3ccc(F)cc3)cc2)oc2cc(N(CCCC#N)S(C)(=O)=O)c(C3CC3)cc12 [Compound I-96] | 7 nM |
| CNC(=O)c1c(-c2ccc(Nc3ccc(F)cc3)cc2)oc2cc(N(CCO)S(C)(=O)=O)c(OC)cc12 [Compound I-2] | 100 nM |
| CNC(=O)c1c(-c2ccc(Oc3ccccn3)cc2)oc2cc(N(CCO)S(C)(=O)=O)c(OC)cc12 [Compound I-127, 6-[(2-Hydroxy-ethyl)-methanesulfonyl-amino]-5-methoxy-2-[4-(pyridin-2-yloxy)-phenyl]-benzofuran-3-carboxylic acid methylamide] | 611 nM |
| CNC(=O)c1c(-c2ccc(Oc3ccc(F)cc3)cc2)oc2cc(N(CC(C)O)S(C)(=O)=O)c(C3CC3)cc12 (stereo not shown) [Compound I-68] | 26 nM |
| CCCc1cc2c(C(=O)NC)c(-c3ccc(Oc4ccccc4F)cc3)oc2cc1N(CCO)S(C)(=O)=O [Compound I-65, 2-[4-(2-Fluoro-phenoxy)-phenyl]-6-[(2-hydroxy-ethyl)-methanesulfonyl-amino]-5-propyl-benzofuran-3-carboxylic acid methylamide] | 21 nM |

| Compound | IC50 |
| --- | --- |
| CNC(=O)c1c(-c2ccc(Oc3ccc(F)cc3)cc2)oc2cc(N(CCCO)S(C)(=O)=O)c(C3CC3)cc12 [Compound I-106] | 18 nM |
| CNC(=O)c1c(-c2ccc(Nc3ccc(F)cc3)cc2)oc2cc(N(CCO)S(C)(=O)=O)c(OC(C)C)cc12 [Compound I-31] | 92 nM |
| CNC(=O)c1c(-c2ccc(Nc3ccc(F)cc3F)cc2)oc2cc(N(CCO)S(C)(=O)=O)c(OC)cc12 [Compound I-14] | 24 nM |
| CNC(=O)c1c(-c2ccc(Oc3ccc(F)cc3)cc2)oc2cc(N(C3CCOC3)S(C)(=O)=O)c(C3CC3)cc12 (stereo not shown) [Compound I-84] | 155 nM |
| CNC(=O)c1c(-c2ccc(Oc3ccc(C#N)cc3)cc2)oc2cc(N(CCO)S(C)(=O)=O)c(OC)cc12 [Compound I-48] | 1070 nM |
| CNC(=O)c1c(-c2ccc(Oc3ccc(F)cc3)cc2)oc2cc(N(CC3CCOC3)S(C)(=O)=O)c(C3CC3)cc12 (stereo not shown) [Compound I-60] | 115 nM |
| CNC(=O)c1c(-c2ccc(Oc3ccc(F)cc3)cc2)oc2cc(N(C(C)CN)S(C)(=O)=O)c(C3CC3)cc12 (stereo not shown) [Compound I-95] | 60 nM |
| CNC(=O)c1c(-c2ccc(Oc3ccccc3)cc2)oc2cc(-c3ccc[nH]3)c(C3CC3)cc12 [Compound I-89, 5-Cyclopropyl-2-(4-phenoxy-phenyl)-6-(1H-pyrrol-2-yl)-benzofuran-3-carboxylic acid methylamide] | 722 nM |
| CNC(=O)c1c(-c2ccc(Nc3ccc(C)cc3)cc2)oc2cc(N(CCO)S(C)(=O)=O)c(OC)cc12 [Compound I-20] | 92 nM |
| CNC(=O)c1c(-c2ccc(Oc3cccc(Cl)c3)cc2)oc2cc(N(CCO)S(C)(=O)=O)c(OC(C)C)cc12 [Compound I-46] | 51 nM |
| CNC(=O)c1c(-c2ccc(Oc3ccccc3Cl)cc2)oc2cc(N(CCO)S(C)(=O)=O)c(OC)cc12 [Compound I-44] | 82 nM |
| CNC(=O)c1c(-c2ccc(Oc3ccc(F)cc3)cc2)oc2cc(N(CCNS(C)(=O)=O)S(C)(=O)=O)c(C3CC3)cc12 [Compound I-80] | 179 nM |
| CCN(c1cc2oc(-c3ccc(Nc4ccccc4F)cc3)c(C(=O)NC)c2cc1OC)S(C)(=O)=O [Compound I-18] | 5 nM |
| CNC(=O)c1c(-c2ccc(Oc3ccc(F)cc3)cc2)oc2cc(N(C3CCN(S(C)(=O)=O)C3)S(C)(=O)=O)c(C3CC3)cc12 (stereo not shown) [Compound I-94, 5-cyclopropyl-2-[4-(4-fluoro-phenoxy)-phenyl]-6-[methanesulfonyl-(1-methanesulfonyl-pyrrolidin-3-yl)-amino]-benzofuran-3-carboxylic acid methylamide] | 28 nM |
| CNC(=O)c1c(-c2ccc(Oc3ccccc3F)cc2)oc2cc(N(CCO)S(C)(=O)=O)c(OC)cc12 [Compound I-9] | 85 nM |
| CNC(=O)c1c(-c2ccc(Oc3ccc(F)cc3)cc2)oc2cc(N(C3CCNC3)S(C)(=O)=O)c(C3CC3)cc12 (stereo not shown) [Compound I-91, 5-Cyclopropyl-2-[4-(4-fluoro-phenoxy)-phenyl]-6-(methanesulfonyl-pyrrolidin-3-yl-amino)-benzofuran-3-carboxylic acid methylamide] | 24 nM |
| CCN(c1cc2oc(-c3ccc(Oc4ccc(F)cc4)cc3)c(C(=O)NC)c2cc1C1CC1)S(C)(=O)=O [Compound I-42] | 143 nM |
| CNC(=O)c1c(-c2ccc(Nc3ccccc3)cc2)oc2cc(N(CCO)S(C)(=O)=O)c(OC(C)C)cc12 [Compound I-28, 6-[(2-Hydroxy-ethyl)-methanesulfonyl-amino]-5-isopropoxy-2-(4-phenylamino-phenyl)-benzofuran-3-carboxylic acid methylamide] | 42 nM |
